Reference: PMC7606262 (Molecular genetics and metabolism, 2020)
Positions count from the first letter of the chain named.

How the values were obtained:
[1] = biological target: T1, LCAD (long-chain acyl-CoA dehydrogenase) (Homo sapiens, UniProt P28330); assay: absorbance scan, A443/A280 FAD content; assay type: binding; conditions: 100 uM free FAD, 37 °C, 20 min, then dialysis; non-covalent FAD
T1 sequence (P28330 31-430): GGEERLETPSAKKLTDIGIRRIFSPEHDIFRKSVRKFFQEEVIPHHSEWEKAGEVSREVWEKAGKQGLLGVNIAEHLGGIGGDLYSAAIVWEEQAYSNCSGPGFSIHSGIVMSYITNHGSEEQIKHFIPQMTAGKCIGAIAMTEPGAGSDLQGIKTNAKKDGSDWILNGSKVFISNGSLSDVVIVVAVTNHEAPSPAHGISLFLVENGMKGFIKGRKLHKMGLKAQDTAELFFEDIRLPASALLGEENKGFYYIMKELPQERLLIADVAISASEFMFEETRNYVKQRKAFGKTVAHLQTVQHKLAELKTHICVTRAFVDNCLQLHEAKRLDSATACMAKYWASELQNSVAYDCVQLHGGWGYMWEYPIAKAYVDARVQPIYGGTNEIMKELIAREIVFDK

[2] = biological target: T1, LCAD (long-chain acyl-CoA dehydrogenase); assay: acyl-CoA oxidase assay; assay type: biochemical; conditions: oxygen as electron acceptor; 50 mM phosphate pH 7.0, 30 °C
[3] = biological target: T2, LCAD (long-chain acyl-CoA dehydrogenase) (Homo sapiens, UniProt P28330, K333Q); assay: acyl-CoA oxidase assay; assay type: biochemical; conditions: oxygen as electron acceptor; 50 mM phosphate pH 7.0, 30 °C
T2 sequence (P28330 31-430 K333Q): T1 sequence (P28330 31-430) with K303Q

| Compound | A443/A280 [1] | acyl-CoA oxidase assay (HRP / Amplex UltraRed fluorescence, H2O2) [2] | acyl-CoA oxidase assay (HRP / Amplex UltraRed fluorescence, H2O2) [3] |
| --- | --- | --- | --- |
| Cc1cc2nc3c(=O)[nH]c(=O)nc-3n(C[C@H](O)[C@H](O)[C@H](O)COP(=O)(O)OP(=O)(O)OC[C@H]3O[C@@H](n4cnc5c(N)ncnc54)[C@H](O)[C@@H]3O)c2cc1C [FAD] | After incubation of wild-type LCAD with FAD, the A443/A280 ratio, an indicator of enzyme-bound FAD | – | – |
| CCCCCCCCCCCCCCCCCC(=O)SCCNC(=O)CCNC(=O)[C@H](O)C(C)(C)COP(=O)(O)OP(=O)(O)OC[C@H]1O[C@@H](n2cnc3c(N)ncnc32)[C@H](O)[C@@H]1OP(=O)(O)O [C18-CoA, stearoyl-CoA] | – | C18-CoA was used as substrate as this chain length produces the highest H2O2 production | the presence of the K333Q substitution significantly reduced oxidase activity |
